# Data published in EP3325012B1, “CINEOLE-CONTAINING COMPOSITION FOR TREATING NOSE POLYPS” (Maria Clementine Martin Klosterfrau Vertriebsgesellschaft …, priority 2015, dated 2017).
# Experiments:
# Akt = assay: Western blot of Akt and P-Akt in nasal polyp protein extracts; format: cell-based, Mensch; conditions: 100 µM; all analysed protein extracts of nasal polyps (Figur 5)
# Description: Lysate von Geweben wurden durch Erhitzen über einen Zeitraum von 5 Minuten in einfachem SDS-Probenpuffer (Carl Roth GmbH, Karlsruhe, Deutschland) denaturiert. Die Proteinkonzentrationen wurden mittels des Bradford-Tests bestimmt und jeweils 30 µg Gesamtprotein wurden zur SDS-Polyacrylamid-Gel Elektrophorese eingesetzt (Mini-Protean TGX®, Any kD, BioRad, Hercules, CA, USA) und anschließend auf Nitrozellulosemembranen übertragen. Die Übertragung der Proteine wurde mittels Ponceau-Färbung kontrolliert.
# Neben der Phosphorylierung an Serin-9/-21 wird die GSK-3-Aktivität auch auf dem Level seiner subzellulären Lokalisierung reguliert. GSK-3 kann zur Trennung von seinen Substraten in endolysosomale Vesikel verlagert werden, um die Kinase-Aktivität zu verringern. […] GSK-3 ist in die Regulation von zahlreichen biosynthetischen Signalwegen involviert und zahlreiche Kinasen sind in der Lage, die GSK-3-Aktivität durch Phosphorylierung an dessen aktivierenden oder hemmenden Phosphorylierungsstellen zu regulieren. Die Akt-Kinase (auch bekannt als PKB) wurde als Onkogen mit Serin/Threonin-Kinase-Aktivität identifiziert und es wurde gezeigt, dass diese in vivo einen negativen Regulator der GSK3-beta Aktivität darstellt. Akt kann durch Phosphorylierung an Serin-473 durch PDK1 aktiviert werden, wobei davon ausgegangen wird, dass PHLPP als Inhibitor von dessen Phosphorylierung fungiert. […]
# Polyposis nasi et sinuum = assay: Cell vitality of polyp single-cell suspensions in culture; format: cell-based, Mensch; conditions: 1mM Cineol versus standard medium, culture over 288 Stunden; effect after 96 bis 144 Stunden; polyps of 5 patients
# Description: Proben von Nasenpolypen wurden in PBS-Puffer gewaschen und in sterilem serumfreiem "High Glucose Dulbecco's Modified Eagle Medium" (PAA, Pasching, Österreich) mit einer Skalpellklinge vorsichtig in kleine Stücke zerkleinert, wobei das Medium 1 % L-Glutamin, 1 % Natriumpyruvat, 1 % nichtessentielle Aminosäuren, 2 % Amphotericin B, 2 % Streptomycin und 2 % Penicillin, ergänzt mit 10 % FCS, und 25 mM HEPES Puffer, enthielt (alle von PAA, Pasching, Österreich). Danach wurden die Gewebeproben durch eine enzymatische Behandlung und Waschschritte mit Collagenase Typ II (31,5 mg/ml, GIBCO, Eggenstein, Deutschland) und Hyaluronidase (3,99 mg/ml, Sigma, München, Deutschland) in einem ersten Schritt und mit Dispase (33,4 mg/ml, Sigma, München, Deutschland) in einem zweiten Schritt jeweils unter Schütteln bei 37 °C für 120 Minuten enzymatisch verdaut. Zwischen den enzymatischen Behandlungen und den Waschschritten wurden die Zellen zentrifugiert. Die resultierenden Zellsuspensionen wurden in PBS (PAA, Pasching, Österreich), enthaltend 2 % BSA, gewaschen und jeweils durch einen 70 µm und einen 60 µm Nylon-Zellfilter (Falcon, Becton Dickinson Labware, Heidelberg, Deutschland) filtriert.
# Erste Vorversuche zum Einfluss von Cineol auf die Progression von Polyposis nasi et sinuum wurden durchgeführt. […]
# Fibroblastenzelllinie = assay: MTT assay, vitality and proliferation of a fibroblast cell line; format: cell-based; conditions: 1 mM bis 10 mM, 250 Stunden
# Description: (§1) Es wurden weiterführende Untersuchungen durchgeführt zur Analyse des Einflusses von Cineol auf die Vitalität und Proliferation verschiedener permanenter Zelllinien. Hierzu wurden einerseits die zwei HNSCC-Zelllinien und des Weiteren eine Fibroblastenzelllinie verwendet. Diese wurden über einen Zeitraum von 250 Stunden mit verschiedenen Cineol-Konzentrationen kultiviert (1 mM bis 10 mM) und die Vitalität der Zellen wurde jeweils mittels eines MTT-Assays untersucht.
# [1] = system: allen untersuchten Zellspezies; assay: Vitality/proliferation, summary over all cell species investigated; format: cell-based; conditions: 10mM
# Description: Erste Vorversuche zum Einfluss von Cineol auf die Progression von Polyposis nasi et sinuum wurden durchgeführt. Hierzu wurden zunächst Einzelzellsuspensionen hergestellt und diese wurden in der Zellkultur über einen Zeitraum von 288 Stunden mit Standardmedium und mit 1mM Cineol inkubiert.
# as §1
# Hierbei zeigte sich ein ähnliches Bild wie in den vorhergegangenen Untersuchungen zum Einfluss von Cineol auf die Vitalität von Polyposis nasi et sinuum-Einzelzellsupensionen, wobei sich jedoch die permanenten Zelllinien erst zu geringfügig späteren Zeitpunkten und bei geringfügig höheren Cineol-Konzentrationen signifikant in ihrer Proliferation beeinflussen ließen. […]
# [2] = system: permanente Zelllinien maligner Kopf-Hals-Tumoren; assay: Cell migration test (xCELLigence); format: cell-based; conditions: 2 mM
# Text: Um den Einfluss von Cineol auf die zelluläre Migrations-Aktivität zu untersuchen, wurden Migrations-CIM-Platten 16 (Roche, Mannheim, Deutschland), bei welchen es sich um ein durch eine poröse Membran getrenntes 2-Kammer-System handelt, entsprechend der Bedienungsanleitung des Herstellers verwendet (Roche Diagnostics). Die Zellen wandern dabei von der oberen Kammer durch die Membran und haften an den elektronischen Sensoren an der Unterseite der Membran, so dass ein Anstieg der Impedanz resultiert. Die Veränderungen werden automatisch und kontinuierlich durch das RTCA-DP-Instrument aufgezeichnet, und die Zellmigrations-Aktivität kann durch das Zell-Index-Profil überwacht werden. Vor dem Befüllen der Wells mit Zellen (60.000 Zellen/Well) wurde die Unterseite der Wells der oberen Kammer der CIM-Platte 16 mit 30 µl Collagen I ([…], Sigma, Deisenhofen, Deutschland) beschichtet. Jede Behandlungsbedingung wurde in dreifacher Ausführung gemessen.
# Neben der zellulären Vitalität und Progression sowie dem Einfluss auf Apoptose und Zellzyklus hat die Anmelderin auch den Einfluss von Cineol auf das zelluläre Migrationsverhalten untersucht. […]
smiles,measurement,setting,value
"CC12CCC(CC1)C(C)(C)O2 [1,8-Cineol, 1,3,3-Trimethyl-2-oxabicyclo[2.2.2]octan]",Phosphorylierungslevel von Akt an Serin-473,Akt,nicht wesentlich beeinflusst
same,Zellvitalität,Polyposis nasi et sinuum,massiven Abfall
same,Progression und Vitalität von Fibroblasten,Fibroblastenzelllinie,inhibierender Einfluss
same,zytotoxische Wirkung,[1],deutlich zytotoxischen Wirkung
same,zelluläre Migrationsaktivität,[2],leichten Einfluss
